Assay results: the NIST ThermoML archive (doi:10.1021/je050112b)
Several values for one entry are separate records, joined by “and”; a condition that tells them apart may be missing. Equal values may be shown once. ± gives the expanded uncertainty stated by the source.

[I][Sm][I] [samarium diiodide]
Liquid
Conditions	vapor or sublimation pressure
1048 K	0.00013 ± 2e-05 kPa
1051 K	0.00016 ± 2e-05 kPa
1064 K	0.00021 ± 2e-05 kPa
1065 K	0.00019 ± 2e-05 kPa
1068 K	0.00024 ± 3e-05 kPa
1069 K	0.00024 ± 3e-05 kPa
1072 K	0.00021 ± 3e-05 kPa
1074 K	0.00027 ± 4e-05 kPa
1076 K	0.00027 ± 3e-05 kPa and 0.00024 ± 3e-05 kPa
1078 K	0.00029 ± 4e-05 kPa
1080 K	0.0004 ± 4e-05 kPa
1082 K	0.00032 ± 5e-05 kPa
1085 K	0.00035 ± 4e-05 kPa
1086 K	0.00035 ± 4e-05 kPa
1088 K	0.00048 ± 5e-05 kPa
1089 K	0.00035 ± 4e-05 kPa
1092 K	0.00043 ± 5e-05 kPa and 0.00035 ± 4e-05 kPa
1093 K	0.00043 ± 4e-05 kPa
1094 K	0.00043 ± 5e-05 kPa
1096 K	0.00048 ± 6e-05 kPa
1098 K	0.00045 ± 5e-05 kPa
1100 K	0.00045 ± 5e-05 kPa
1101 K	0.00053 ± 6e-05 kPa
1102 K	0.00075 ± 8e-05 kPa
1103 K	0.00056 ± 7e-05 kPa
1104 K	0.00059 ± 6e-05 kPa
1106 K	0.00056 ± 6e-05 kPa
1108 K	0.00064 ± 7e-05 kPa and 0.00051 ± 5e-05 kPa
1110 K	0.00061 ± 6e-05 kPa
1111 K	0.00064 ± 7e-05 kPa
1113 K	0.00064 ± 7e-05 kPa
1114 K	0.00077 ± 8e-05 kPa
1118 K	0.00069 ± 9e-05 kPa and 0.00075 ± 9e-05 kPa and 0.00064 ± 8e-05 kPa
1120 K	0.0008 ± 8e-05 kPa
1121 K	0.00117 ± 0.00024 kPa
1124 K	0.00093 ± 0.00012 kPa and 0.00096 ± 0.00012 kPa and 0.00085 ± 0.00011 kPa
1125 K	0.00085 ± 0.00011 kPa
1126 K	0.00091 ± 9e-05 kPa
1128 K	0.00139 ± 0.0003 kPa and 0.00085 ± 9e-05 kPa
1129 K	0.00107 ± 0.00022 kPa and 0.00096 ± 0.0001 kPa
1133 K	0.00123 ± 0.00026 kPa and 0.00104 ± 0.00022 kPa
1134 K	0.00107 ± 0.00022 kPa
1135 K	0.00115 ± 0.00027 kPa
1136 K	0.00134 ± 0.00029 kPa
1138 K	0.00112 ± 0.00023 kPa
1139 K	0.00123 ± 0.00027 kPa
1140 K	0.00176 ± 0.00041 kPa
1141 K	0.00128 ± 0.00027 kPa
1142 K	0.00155 ± 0.00034 kPa and 0.00128 ± 0.00027 kPa
1144 K	0.00144 ± 0.00032 kPa
1145 K	0.0016 ± 0.00035 kPa and 0.00166 ± 0.00037 kPa
1148 K	0.00144 ± 0.00031 kPa
1150 K	0.0016 ± 0.00037 kPa
1151 K	0.0016 ± 0.00036 kPa
1152 K	0.00198 ± 0.00046 kPa
1153 K	0.00182 ± 0.00043 kPa
1154 K	0.00203 ± 0.00052 kPa
1155 K	0.00214 ± 0.00052 kPa
1158 K	0.00198 ± 0.00048 kPa and 0.00192 ± 0.00046 kPa and 0.00187 ± 0.00045 kPa
1159 K	0.00262 ± 0.00064 kPa and 0.00203 ± 0.00048 kPa
1160 K	0.0023 ± 0.00055 kPa
1161 K	0.0024 ± 0.00057 kPa and 0.00219 ± 0.00052 kPa
1162 K	0.00208 ± 0.00048 kPa and 0.00203 ± 0.00047 kPa
1164 K	0.00262 ± 0.00063 kPa
1167 K	0.00246 ± 0.00062 kPa
1168 K	0.0024 ± 0.0006 kPa
1169 K	0.00278 ± 0.0007 kPa and 0.00288 ± 0.00073 kPa
1170 K	0.00272 ± 0.00069 kPa
1171 K	0.00347 ± 0.0009 kPa and 0.00251 ± 0.00063 kPa and 0.00246 ± 0.00061 kPa
1173 K	0.0031 ± 0.00079 kPa
1177 K	0.00331 ± 0.00085 kPa [middle of 4 runs]
1178 K	0.00326 ± 0.00087 kPa
1179 K	0.00288 ± 0.00071 kPa and 0.00358 ± 0.00092 kPa and 0.00294 ± 0.00073 kPa
1181 K	0.00368 ± 0.00095 kPa
1183 K	0.00449 ± 0.0012 kPa
1185 K	0.00363 ± 0.00094 kPa
1186 K	0.00368 ± 0.00095 kPa [middle of 5 runs]
1187 K	0.00401 ± 0.001 kPa
1188 K	0.00427 ± 0.0011 kPa
1189 K	0.00336 ± 0.00085 kPa and 0.00331 ± 0.00083 kPa
1195 K	0.00443 ± 0.0012 kPa
1196 K	0.00507 ± 0.0015 kPa

[I][Sm]([I])[I] [samarium triiodide]
Crystal
Conditions	vapor or sublimation pressure
789 K	0.00017 ± 3e-05 kPa
797 K	0.00024 ± 3e-05 kPa
799 K	0.0002 ± 3e-05 kPa
801 K	0.0002 ± 2e-05 kPa
805 K	0.00034 ± 5e-05 kPa
807 K	0.00029 ± 6e-05 kPa
808 K	0.00025 ± 5e-05 kPa
814 K	0.00051 ± 7e-05 kPa
815 K	0.00034 ± 7e-05 kPa
819 K	0.00051 ± 6e-05 kPa
823 K	0.00071 ± 8e-05 kPa and 0.00047 ± 6e-05 kPa
824 K	0.00064 ± 7e-05 kPa
832 K	0.00067 ± 9e-05 kPa
833 K	0.00088 ± 0.00011 kPa and 0.00101 ± 0.00021 kPa
840 K	0.00111 ± 0.00024 kPa and 0.00098 ± 0.00012 kPa
843 K	0.00145 ± 0.00032 kPa
849 K	0.00148 ± 0.00033 kPa and 0.00135 ± 0.0003 kPa
852 K	0.00212 ± 0.0005 kPa
856 K	0.00189 ± 0.00045 kPa
857 K	0.00168 ± 0.00038 kPa
863 K	0.00236 ± 0.00059 kPa
867 K	0.00236 ± 0.00058 kPa
868 K	0.00276 ± 0.00068 kPa
876 K	0.00307 ± 0.00077 kPa
